In one assay the target is T1, MMP-2 (Homo sapiens, UniProt P08253).
T1 construct: purchased Calbiochem-Novabiochem International, Inc
T1 sequence (P08253 110-660): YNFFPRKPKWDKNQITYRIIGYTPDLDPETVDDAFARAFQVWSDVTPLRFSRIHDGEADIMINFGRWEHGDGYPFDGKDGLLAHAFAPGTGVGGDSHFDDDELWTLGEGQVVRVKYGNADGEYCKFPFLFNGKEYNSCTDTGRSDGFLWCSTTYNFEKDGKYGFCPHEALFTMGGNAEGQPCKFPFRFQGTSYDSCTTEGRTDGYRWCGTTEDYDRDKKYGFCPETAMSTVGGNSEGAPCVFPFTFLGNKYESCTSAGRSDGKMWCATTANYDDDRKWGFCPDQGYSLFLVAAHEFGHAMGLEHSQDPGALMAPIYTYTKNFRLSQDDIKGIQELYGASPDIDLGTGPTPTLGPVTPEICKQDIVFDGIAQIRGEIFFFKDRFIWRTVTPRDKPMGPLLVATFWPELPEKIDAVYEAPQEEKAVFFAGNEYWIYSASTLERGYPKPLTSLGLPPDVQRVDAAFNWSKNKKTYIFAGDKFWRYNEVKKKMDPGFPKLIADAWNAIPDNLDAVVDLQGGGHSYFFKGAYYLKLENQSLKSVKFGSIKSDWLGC
Briefly: Assay for inhibitory activities on MMPs (fluorogenic peptide substrate): MMP-2. The assay is classed as biochemical. The note with it: substrate MOCAc-Pro-Leu-Gly-Leu-A2Pr(DNP)-Ala-Arg-NH2. The protocol:
MMP-2 was purchased from Calbiochem-Novabiochem International, Inc.
(§1) The enzymatic activity on MMPs was analyzed by the method described in “C. Graham Knight, Frances Willenbrock and Gillian Murphy: A novel coumarin-labelled peptide for sensitive continuous assays of the matrix metalloproteinases: FEBS LETT., 296, (1992), 263-266”. The substrate: MOCAc-Pro-Leu-Gly-Leu-A2Pr(DNP)-Ala-Arg-NH2 was purchased from Peptide Institute, Inc., Osaka, Japan. The measurement of the inhibitory activities (IC50) was carried out by the following four methods;
(§2) (A) Reaction with substrate, enzyme (MMPs) and inhibitor
(§3) (B) Reaction with substrate and inhibitor, without enzyme
(§4) (C) Reaction with substrate and enzyme (MMPs), without inhibitor
(§5) (D) Reaction with substrate only
(§6) IC50 values were calculated by using the following formula and each fluorescence values of above four methods (A to D).
(§7) % inhibition={1−(A−B)/(C−D)}×100
(§8) IC50 means the concentration required to inhibit 50% of the enzyme activity.

For the next assay, the target named is T2, MMP-8 catalytic domain (Homo sapiens, UniProt P22894).
T2 construct: catalytic domain (^99Phe˜^262Gly); His-tag; enterokinase digestion-site; made in house; host or cells: Escherichia coli
T2 sequence (P22894 99-262): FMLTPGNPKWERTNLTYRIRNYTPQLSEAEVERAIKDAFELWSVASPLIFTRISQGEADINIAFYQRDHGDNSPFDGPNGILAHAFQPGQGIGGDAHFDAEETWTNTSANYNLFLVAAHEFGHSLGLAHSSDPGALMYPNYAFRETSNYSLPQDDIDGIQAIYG
Briefly: Assay for inhibitory activities on MMPs (fluorogenic peptide substrate): MMP-8. The assay is classed as biochemical. The settings on record: substrate MOCAc-Pro-Leu-Gly-Leu-A2Pr(DNP)-Ala-Arg-NH2.
Source text: In regard to MMP-8, catalytic domain (^99Phe˜^262Gly) was amplified with PCR using commercial available Human Bone Marrow cDNA. This was cloned in Escherichia. coli expression vector pTrc99AHE inserted with His-tag sequence and enterokinase digestion-site, induced and expressed by IPTG (Isopropyl-β-D-thiogalactopyranoside) and expressed in a insoluble fraction (Than F. Ho, M. Walid Qoronfleh, Robert C. Wahl, Trica A. Pulvino, Karen J. Vavra, Joe Falvo, Tracey M. Banks, Patricia G. Brake and Richard B. Ciccarelli: Gene expression, purification and characterization of recombinant human neutrophil collagenase. Gene 146, (1994) 297-301, Prepared by the a improved method of this material). Isolation of MMP-8 from insoluble fraction was carried out by dissolving in modifier (6M urea) by a usual method and purification with metal chelate chromatography. And then removing modifier (6M urea) with dialysis and refolding of the enzyme spontaneously gave activated MMP-8.
as §1, §2, §3, §4, §5, §6, §7, §8

Another assay addresses T3, MMP-12 catalytic domain (Homo sapiens, UniProt P39900).
T3 construct: catalytic domain(^100Phe˜^263Gly); His-tag; enterokinase digestion-site; made in house; host or cells: Escherichia coli
Briefly: Assay for inhibitory activities on MMPs (fluorogenic peptide substrate): MMP-12. It counts as biochemical. The settings on record: substrate MOCAc-Pro-Leu-Gly-Leu-A2Pr(DNP)-Ala-Arg-NH2. As to the method: (§9) In regard to MMP-12, catalytic domain(^100Phe˜^263Gly) was amplified with RT-PCR from Human Placenta Total RNA. This was cloned in Escherichia coli expression vector pTrc99AHE inserted with His-tag sequence and enterokinase digestion-site, induced and expressed by IPTG (Isopropyl-β-D-thiogalactopyranoside) and expressed in a insoluble fraction. Isolation of MMP-12 from a insoluble fraction was carried out by dissolving in modifier (6M urea) by a usual method and purification with metal chelate chromatography (Ni Chelateing Sepharose). And then removing modifier (6M urea) with dialysis and refolding of the enzyme spontaneously gave activated MMP-12.
as §1, §2, §3, §4, §5, §6, §7, §8

The target of the next assay is T4, MMP-13 catalytic domain (Homo sapiens, UniProt P45452).
T4 construct: catalytic domain (^104Tyr˜^267Gly); His-tag; enterokinase digestion-site; made in house; host or cells: Escherichia coli
Briefly: Assay for inhibitory activities on MMPs (fluorogenic peptide substrate): MMP-13. It counts as biochemical. The note with it: substrate MOCAc-Pro-Leu-Gly-Leu-A2Pr(DNP)-Ala-Arg-NH2. As to the method: as §9, with “MMP-13, mRNA was prepared from carcinoma cell SW1353 derived from human cartilage stimulate by IL-1, TNF and” for “MMP-12,”, “domain (^104Tyr˜^267Gly)” for “domain(^100Phe˜^263Gly)”, “RT-PCR.” for “RT-PCR from Human Placenta Total RNA.”, “MMP-1.3” for “MMP-12”, “dialyze” for “dialysis”, “MMP-13.” for “MMP-12.”
as §1, §2, §3, §4, §5, §6, §7, §8

Assay [1] deals with Sprague-Dawley male rats exposed to cigarette smoke. Briefly: Cigarette smoke exposure in rats, lung mechanics. It counts as in vivo, rat. The settings on record: 30 mg/kg p.o. twice daily. As to the method:
Sprague-Dawley male rats (390-430 g initial body weight) were exposed daily to smoke from commercial filtered cigarettes (30 cigarettes/rat/day, 5 days/week, for 7 to 8 weeks) with a smoke-generating and whole-body exposure system. The animals received 30 mg/kg p.o. twice daily of compound (B-6), which was suspended with 0.5% methyl cellulose. Vehicle animals received 2 ml/kg of 0.5% methyl cellulose. At 16-24 hr after the last exposure with cigarette smoke, anesthesia was induced with intraperitoneal injection of 40 mg/kg of pentobarbital sodium. Immediately after muscle relaxation with intravenous pancuronium bromide (0.3 mg/rat), animals were mechanically ventilated with a pressure-limited ventilator and were evaluated dynamic compliance. After exsanguination, the lung was attached to a glass syringe via a connector tube and continuously inflated through the airway to a transpulmonary pressure of 30 cmH2O, deflated them to a Ptp of 0 cmH2O, and aspirated them to a Ptp of −20 cmH2O. The change of Ptp and lung volume was monitored and recorded as the deflation pressure-volume (P-V) curve. Static lung compliance defined as the slope of steep portion of the deflation P-V curve was evaluated. Inspiratory capacity (IC) defined as the difference in lung volume between total lung capacity at a Ptp of 25 cmH2O and functional residual capacity at a Ptp of 0 cmH2O was evaluated.
Data are expressed as means ±S.D. Statistical analysis was performed with one-sided Student's t-test. A value of P<0.05 was considered significant.

[2] abbreviates: cigarette smoke exposure 7 to 8 weeks, means ± S.D., n = 7.

We go through one molecule from patent US6897237B2, “MMP-12 inhibitors” (Shionogi & Co. Ltd., priority 2000, dated 2005).

T3 sequence (P39900 100-263): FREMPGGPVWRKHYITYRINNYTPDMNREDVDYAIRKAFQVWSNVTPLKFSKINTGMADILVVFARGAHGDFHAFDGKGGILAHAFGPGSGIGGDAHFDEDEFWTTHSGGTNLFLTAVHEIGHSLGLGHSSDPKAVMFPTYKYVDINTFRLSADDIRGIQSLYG

For orientation: IC50 means the concentration needed to halve the response being measured. `C[C@@H](NS(=O)(=O)c1ccc(C#Cc2ccc3ccccc3c2)s1)C(=O)O` [Compound B-6] gave an IC50 against MMP-2 of 350 nM. Also, the IC50 against MMP-8 catalytic domain worked out at 2090 nM. In addition, the IC50 on MMP-12 catalytic domain amounted to 23 nM. Besides, the half-maximal inhibitory concentration (IC50) against MMP-13 catalytic domain worked out at 840 nM. For the same molecule, in assay [1], the “effect on increase of dynamic compliance by cigarette smoke exposure (in words)” value is recorded as “tended to attenuate the increase”, the “effect on increase of inspiratory capacity by cigarette smoke exposure (in words)” value is given as “tended to attenuate the increase” and the “effect on increase of static lung compliance by cigarette smoke exposure (in words)” value is reported as “significantly reduced the increase”. In assay [1] (setting [2]), this molecule registered an Inspiratory capacity of 21.76 ± 1.85 mL/kg and a dynamic compliance of 0.96 ± 0.17 ml/cmH2O/kg. This molecule came in with a Static lung compliance in assay [1] (cigarette smoke exposure 7 to 8 weeks, means ± S.D., n = 7, P < 0.05 vs. Cigarette smoke exposure) of 2.05 ± 0.25 ml/cmH2O/kg.
